Data taken from article PMC6631349 (Xenobiotica; the fate of foreign compounds in biological …, 2014).
Read-outs that look alike come from different tables or passages of the source.

Columns and labels:
[1] = biological target: T1, UGT1A1 (Homo sapiens, UniProt P22309); assay: UGT1A1 supersomes-catalyzed 4-MU glucuronidation inhibition; conditions: recombinant human UGT, mean of triplicate
T1 sequence (P22309 26-533): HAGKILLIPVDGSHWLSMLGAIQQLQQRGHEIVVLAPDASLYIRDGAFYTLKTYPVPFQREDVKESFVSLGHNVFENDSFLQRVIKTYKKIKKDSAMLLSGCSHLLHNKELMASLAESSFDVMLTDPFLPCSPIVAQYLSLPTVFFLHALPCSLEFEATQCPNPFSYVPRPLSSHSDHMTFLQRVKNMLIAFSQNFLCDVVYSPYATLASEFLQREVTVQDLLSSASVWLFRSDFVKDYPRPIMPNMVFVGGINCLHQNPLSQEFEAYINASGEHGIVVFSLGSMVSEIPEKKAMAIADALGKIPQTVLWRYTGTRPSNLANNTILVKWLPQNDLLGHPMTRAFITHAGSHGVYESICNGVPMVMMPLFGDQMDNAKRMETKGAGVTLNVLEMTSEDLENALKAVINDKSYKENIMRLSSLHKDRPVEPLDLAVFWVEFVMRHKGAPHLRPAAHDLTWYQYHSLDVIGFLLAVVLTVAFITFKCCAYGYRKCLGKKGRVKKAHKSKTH

[2] = biological target: T2, UGT1A6 (Homo sapiens, UniProt P19224); conditions: for residual activity 1A6: recombinant human UGT, mean of triplicate
T2 sequence (P19224 27-532): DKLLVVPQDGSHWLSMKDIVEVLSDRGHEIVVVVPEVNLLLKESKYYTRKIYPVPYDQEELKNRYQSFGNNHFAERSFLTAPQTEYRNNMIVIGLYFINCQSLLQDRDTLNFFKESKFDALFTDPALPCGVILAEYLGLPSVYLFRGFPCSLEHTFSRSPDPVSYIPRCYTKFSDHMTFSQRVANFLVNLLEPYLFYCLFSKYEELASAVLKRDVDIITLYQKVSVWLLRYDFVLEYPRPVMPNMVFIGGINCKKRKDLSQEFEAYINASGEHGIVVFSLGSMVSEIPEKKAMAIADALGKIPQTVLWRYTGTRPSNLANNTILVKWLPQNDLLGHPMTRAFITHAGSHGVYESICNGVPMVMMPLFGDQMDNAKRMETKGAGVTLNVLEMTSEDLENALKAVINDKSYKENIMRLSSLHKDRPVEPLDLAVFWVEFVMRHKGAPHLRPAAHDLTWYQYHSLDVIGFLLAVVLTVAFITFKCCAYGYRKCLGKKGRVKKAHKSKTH

[3] = biological target: T3, UGT2B7 (Homo sapiens, UniProt P16662); assay: UGT2B7 supersomes-catalyzed 4-MU glucuronidation inhibition; conditions: recombinant human UGT, mean of triplicate
T3 sequence (P16662 24-529): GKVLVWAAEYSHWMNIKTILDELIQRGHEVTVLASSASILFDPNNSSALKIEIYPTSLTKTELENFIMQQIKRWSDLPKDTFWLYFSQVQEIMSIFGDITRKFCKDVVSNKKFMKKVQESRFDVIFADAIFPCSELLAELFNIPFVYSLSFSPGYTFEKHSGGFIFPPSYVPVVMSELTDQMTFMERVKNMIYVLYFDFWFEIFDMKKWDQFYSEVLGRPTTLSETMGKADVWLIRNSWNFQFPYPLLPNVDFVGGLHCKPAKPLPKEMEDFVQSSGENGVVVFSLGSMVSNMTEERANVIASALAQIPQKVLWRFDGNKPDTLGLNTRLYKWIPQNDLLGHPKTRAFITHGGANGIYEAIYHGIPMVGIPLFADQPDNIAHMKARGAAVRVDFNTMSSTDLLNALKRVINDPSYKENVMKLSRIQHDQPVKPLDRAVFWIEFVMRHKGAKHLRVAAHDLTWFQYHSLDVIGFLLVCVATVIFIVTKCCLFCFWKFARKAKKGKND

[4] = biological target: T4, UGT2B4 (Homo sapiens, UniProt P06133); assay: UGT2B4 supersomes-catalyzed 4-MU glucuronidation inhibition; conditions: recombinant human UGT, mean of triplicate
T4 sequence (P06133 24-528): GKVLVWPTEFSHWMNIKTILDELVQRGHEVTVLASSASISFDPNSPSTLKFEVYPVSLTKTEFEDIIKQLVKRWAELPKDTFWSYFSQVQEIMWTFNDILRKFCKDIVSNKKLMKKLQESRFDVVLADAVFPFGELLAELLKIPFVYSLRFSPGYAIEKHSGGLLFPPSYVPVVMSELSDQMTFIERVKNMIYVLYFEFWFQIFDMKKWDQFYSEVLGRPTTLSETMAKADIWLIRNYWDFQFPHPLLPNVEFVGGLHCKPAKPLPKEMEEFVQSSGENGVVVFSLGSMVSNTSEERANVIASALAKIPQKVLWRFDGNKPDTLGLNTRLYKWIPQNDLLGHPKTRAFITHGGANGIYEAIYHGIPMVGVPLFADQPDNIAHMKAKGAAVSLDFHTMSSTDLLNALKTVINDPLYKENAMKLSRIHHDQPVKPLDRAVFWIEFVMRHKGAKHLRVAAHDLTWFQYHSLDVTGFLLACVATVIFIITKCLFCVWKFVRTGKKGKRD

[5] = biological target: T5, UGT1A7 (Homo sapiens, UniProt Q9HAW7); assay: UGT1A7 supersomes-catalyzed 4-MU glucuronidation inhibition; conditions: recombinant human UGT, mean of triplicate
T5 sequence (Q9HAW7 26-530): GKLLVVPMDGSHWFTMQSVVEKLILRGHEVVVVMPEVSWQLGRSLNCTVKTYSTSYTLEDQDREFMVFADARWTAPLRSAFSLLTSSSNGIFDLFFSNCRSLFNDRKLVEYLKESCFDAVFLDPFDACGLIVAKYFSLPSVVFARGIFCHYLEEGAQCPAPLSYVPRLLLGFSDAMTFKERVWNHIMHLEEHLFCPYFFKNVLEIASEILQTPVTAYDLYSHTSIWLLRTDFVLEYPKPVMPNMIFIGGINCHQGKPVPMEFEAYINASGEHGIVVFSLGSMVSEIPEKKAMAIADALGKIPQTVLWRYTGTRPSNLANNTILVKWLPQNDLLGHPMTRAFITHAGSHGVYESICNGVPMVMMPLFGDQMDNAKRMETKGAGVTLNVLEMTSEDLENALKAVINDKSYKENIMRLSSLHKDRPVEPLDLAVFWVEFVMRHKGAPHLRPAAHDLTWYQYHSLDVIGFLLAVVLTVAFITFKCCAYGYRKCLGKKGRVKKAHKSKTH

Row | Structure (SMILES) | residual activity 1A1 ([1]; 50 μM PC components) | residual activity 1A6 ([2]; 50 μM PC components) | residual activity 2B7 ([3]; 50 μM PC components) | residual activity 2B4 ([4]; 50 μM PC components) | residual activity 1A7 ([5]; 50 μM PC components) | residual activity 1A1 ([1]; 50 μM LPC components) | residual activity 1A6 ([2]; 50 μM LPC components) | residual activity 2B7 ([3]; 50 μM LPC components) | residual activity 2B4 ([4]; 50 μM LPC components) | residual activity 1A7 ([5]; 50 μM LPC components) | inhibition kinetic type towards UGT1A6 ([2]; Dixon and Lineweaver-Burk plots, 4-MU glucuronidation)
1 | CCCCCCCCCCCCCC(=O)OC[C@@H](O)COP(=O)([O-])OCC[N+](C)(C)C [LPC 14:0] |  |  |  |  |  | 171.3% | 33.3% | 90.5% | 217.1% | 153.6% | 
2 | CCCCCCC(=O)OCC(O)COP(=O)([O-])OCC[N+](C)(C)C (stereo not drawn) [LPC 7:0] |  |  |  |  |  | 174.9% | 71.0% | 73.8% | 183.5% | 138.3% | 
3 | CCCCCCCCCCCCCCCCCCCCCCC(=O)OC[C@H](COP(=O)([O-])OCC[N+](C)(C)C)OC(=O)CCCCCCCCCCCCCCCCCCCCCC [PC 23:0, 23:0] | 133.7% | 98.9% | 69.5% | 168.3% | 118.8% |  |  |  |  |  | 
4 | CCCCCCCCC(=O)OC[C@@H](O)COP(=O)([O-])OCC[N+](C)(C)C [LPC 9:0] |  |  |  |  |  | 179.6% | 67.2% | 76.2% | 179.1% | 134.9% | 
5 | CCCCCCCCCCCCCCCCCC(=O)OC[C@@H](O)COP(=O)([O-])OCC[N+](C)(C)C [LPC 18:0] |  |  |  |  |  | 160.5% | 4.3% | 39.3% | 280.4% | 133.4% | non-competitively inhibited
6 | CC/C=C\C/C=C\C/C=C\C/C=C\C/C=C\C/C=C\CCC(=O)O[C@H](COC(=O)CCCCCCCCCCCCCCCCC)COP(=O)([O-])OCC[N+](C)(C)C [PC 18:0, 22:6, 1-stearoyl-2-docosahexaenoyl-sn-glycero-3-phosphocholine] | 186.6% | 88.8% | 73.6% | 183.2% | 167.9% |  |  |  |  |  | 
7 | CCCCCC(=O)OC[C@H](COP(=O)([O-])OCC[N+](C)(C)C)OC(=O)CCCCC [PC 6:0, 6:0] | 187.8% | 67.3% | 70.2% | 178.7% | 166.0% |  |  |  |  |  | 
8 | CCCCCCCC(=O)OCC(O)COP(=O)([O-])OCC[N+](C)(C)C (stereo not drawn) [LPC 8:0] |  |  |  |  |  | 184.9% | 74.2% | 70.1% | 185.0% | 133.3% | 

The next lines start with results.

Row | residual activity 1A1 ([1]; 50 μM PC components) | residual activity 1A6 ([2]; 50 μM PC components) | residual activity 2B7 ([3]; 50 μM PC components) | residual activity 2B4 ([4]; 50 μM PC components) | residual activity 1A7 ([5]; 50 μM PC components) | Structure (SMILES) | residual activity 1A1 ([1]; 50 μM LPC components) | residual activity 1A6 ([2]; 50 μM LPC components) | residual activity 2B7 ([3]; 50 μM LPC components) | residual activity 2B4 ([4]; 50 μM LPC components) | residual activity 1A7 ([5]; 50 μM LPC components) | inhibition kinetic type towards UGT1A6 ([2]; Dixon and Lineweaver-Burk plots, 4-MU glucuronidation)
9 | 208.8% | 40.8% | 85.8% | 182.7% | 171.4% | CCCCCCCCCCCC(=O)OC[C@H](COP(=O)([O-])OCC[N+](C)(C)C)OC(=O)CCCCCCCCCCC [PC 12:0, 12:0] |  |  |  |  |  | 
10 | 192.6% | 53.7% | 60.3% | 185.1% | 155.2% | CCCCCCCCCCCCCCCC(=O)OC[C@H](COP(=O)([O-])OCC[N+](C)(C)C)OC(=O)CCCCCCCCCCCCCCC [PC 16:0, 16:0] |  |  |  |  |  | 
11 | 185.2% | 85.4% | 26.2% | 80.3% | 122.0% | CCCCCCCCCCCCCCCCCCCCC(=O)OC[C@H](COP(=O)([O-])OCC[N+](C)(C)C)OC(=O)CCCCCCCCCCCCCCCCCCCC [PC 21:0, 21:0] |  |  |  |  |  | 
12 | 232.3% | 35.0% | 100.5% | 181.0% | 175.5% | CCCCCCCCCCC(=O)OC[C@H](COP(=O)([O-])OCC[N+](C)(C)C)OC(=O)CCCCCCCCCC [PC 11:0, 11:0] |  |  |  |  |  | 
13 | 170.3% | 60.2% | 33.0% | 60.0% | 86.2% | CCCCCCCCCCCCCCCCCCCCCC(=O)OC[C@H](COP(=O)([O-])OCC[N+](C)(C)C)OC(=O)CCCCCCCCCCCCCCCCCCCCC [PC 22:0, 22:0] |  |  |  |  |  | 
